{"source": "patent US9969698B2", "about": "“Quinoxalinyl-piperazinamide methods of use” (REXAHN PHARMACEUTICALS, INC., priority 2015, dated 2018)", "key": {"[1]": {"tested_on": "MC38 murine colon cancer", "assay": "Syngeneic MC38 murine colon cancer model", "assay_type": "in vivo", "description": "Following the methods described below, the effect of RX-5902 on tumor growth in a syngeneic model using female C57BL/6 mice with MC38 murine colon cancer was examined. Tumor growth was measured in a treatment group compared to a control (vehicle treated) group (see Table 5 below for dosing schema and treatment regimen).\nThe present study consisted of five groups (n=10 per group) of female C57BL/6 mice bearing subcutaneous MC38 tumors (mean tumor volume range: 66-68 mm3) on Day (D1) of the study, when dosing began. Vehicle was administered orally (p.o.). RX-5902 was administered p.o. at 84.34 mg/kg (70 mg/kg active dose). Anti-PD-1 (RMP1-14) was administered at 100 μg/animal, intraperitoneally (i.p.). Group 1 mice served as controls and received PBS (vehicle) five days on, two days off for three cycles ((5/2)×3). Group 2 received RX-5902 (5/2)×3. Group 3 received anti-PD-1 twice weekly for two weeks (biwk×2). Group 4 received RX-5902 (5/2)×3 and anti-PD-1 biwk×2. The study endpoint was a tumor volume of 1500 mm^3 or 45 days, whichever came first. Tumor measurements were taken twice weekly until Day 45 with individual animals exiting the study upon reaching the tumor volume endpoint.\nPartial treatment outcome was based on percent tumor growth inhibition (% TGI), defined as the percent difference between Day 28, chosen for the TGI analysis, median tumor volumes (MTVs) of treated and control mice. The results were analyzed and were deemed statistically significant at P≤0.05. A treatment that produced at least 60% TGI was considered to have potential therapeutic activity. Additionally, efficacy was determined from tumor growth delay (TGD), a measure of the increase in the median time to endpoint (TTE) in a treatment, compared to the control group. Response was additionally evaluated based on the number of study survivors, partial regression (PR) and complete regression (CR) responses, and logrank significance of differences in survival. Tolerability of the various treatments was assessed by body weight (BW) measurements and frequent observation for clinical symptoms and treatment-related (TR) side effects."}, "[2]": {"assay": "Human safety and tolerability, dose-ranging study", "assay_type": "in vivo", "conditions": "oral capsules", "description": "In a dose-ranging study, the pharmacokinetics (PK), safety and tolerability of RX-5902 at various oral doses were evaluated. Subjects with advanced or metastatic solid tumors were administered capsules containing RX-5902 at daily doses of 25-775 mg once weekly, 250-300 mg three times a week, 150-300 mg five times a week, or 300-350 mg seven times a week of RX-5902 for up to 6 dosing cycles. Each cycle consisting of 1-5 doses of RX-5902 per week for 3 weeks followed by 1 week of rest, or 5-7 doses of RX-5902 per week for 4 weeks without any rest per 4-week cycle. All but one subject had fasted from food for at least 8 hours before administration. One subject received 300 mg RX-5902 in fed state. Plasma concentrations were measured on Days 1 and 15, for 48 hrs, using a validated LC-MS/MS assay, and noncompartmental pharmacokinetic parameters were calculated using Phoenix WinNonlin, Version 6.4."}, "[3]": {"tested_on": "CYP450 isozymes 1A2, 2A6, 2B6, 2C8, 2C9, 2C19, 2D6", "assay": "Loss of RX-5902 after incubation with other expressed CYP450 isozymes", "assay_type": "in vitro ADME", "conditions": "30-minute incubation with any other CYP isozyme", "description": "Two in vitro studies were performed to examine the involvement of specific cytochrome P450 (CYP450) isozymes in the in vitro metabolism of RX-5902. In the first study, the loss of RX-5902 was measured after incubation with expressed CYP450 isozymes (1A2, 2A6, 2B6, 2C8, 2C9, 2C19, 2D6, 3A4 and 3A5). […] In the second study, RX-5902 was incubated with pooled human liver microsomes in the presence of CYP450 isozyme-selective chemical inhibitors. The inhibitors tested were selective for 1A2, 2A6, 2B6, 2C8, 2C9, 2C19, 2D6, and 3A4/5."}, "[4]": {"biological_target": "T1, p68 RNA helicase (Homo sapiens, UniProt P17844)", "T1 construct": "made in house", "T1 sequence (P17844 whole entry)": "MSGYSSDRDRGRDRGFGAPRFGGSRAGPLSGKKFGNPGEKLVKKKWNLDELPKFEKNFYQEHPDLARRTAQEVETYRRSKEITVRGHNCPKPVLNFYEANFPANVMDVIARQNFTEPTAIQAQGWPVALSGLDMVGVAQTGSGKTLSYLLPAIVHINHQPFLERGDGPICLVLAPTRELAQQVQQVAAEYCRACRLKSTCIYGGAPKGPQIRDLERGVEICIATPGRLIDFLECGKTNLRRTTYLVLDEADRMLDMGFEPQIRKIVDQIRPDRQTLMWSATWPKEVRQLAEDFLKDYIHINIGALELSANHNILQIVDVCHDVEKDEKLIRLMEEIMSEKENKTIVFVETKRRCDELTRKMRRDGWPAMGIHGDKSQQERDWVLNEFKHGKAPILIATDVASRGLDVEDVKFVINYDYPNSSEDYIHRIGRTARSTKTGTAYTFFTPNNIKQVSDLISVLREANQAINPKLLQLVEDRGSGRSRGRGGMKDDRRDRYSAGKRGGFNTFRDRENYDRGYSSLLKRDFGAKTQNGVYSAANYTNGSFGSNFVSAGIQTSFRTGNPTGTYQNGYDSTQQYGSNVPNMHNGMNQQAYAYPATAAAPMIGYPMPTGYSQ", "assay": "RNA-dependent ATPase assay", "assay_type": "biochemical", "conditions": "total RNA extracted from yeast", "description": "ATPase activity was determined by measuring the released inorganic phosphate during ATP hydrolysis using a direct colorimetric assay (Shin et al., Cancer Res., 67:7572-7578 (2007); Yang et. al., Cell, 127:139-155 (2006)). A typical ATPase assay was carried out in 50 μl reaction volumes, containing 20 mM Tris-HCl pH 7.5, 200 mM NaCl, 1 mM MgCl2, 5 mM DTT, ˜1-2 of appropriate substrate, 4 mM ATP, and 10 μl of helicase. The ATPase reactions were incubated at 37° C. for 30 minutes. After incubation, 1 ml of malachitegreen-molybdenum reagent was added to the reaction mixture, and reactions were further incubated at room temperature for exactly 5 minutes. The absorption (A) at 630 nm was then measured. The concentrations of inorganic phosphate were determined by matching the A630nm in a standard curve of A630nm vs. known phosphate concentrations. […] The percentage of inhibition by defining the ATPase activity of phospho-p68 without RX-5902 as zero percent inhibition was calculated and IC50 of RX-5902 was calculated by non-linear regression analysis using Kaledia Graph software program (Synergy Software, Reading, Pa.).\nThe effect of RX-5902 on ATPase activity of p68 was investigated. To do this, ATPase activity of recombinant p68 in the presence of RX-5902 and total RNA extracted from yeast were measured."}}}
{"smiles": "COc1cc(OC)cc(N2CCN(C(=O)Nc3nc4cc(F)ccc4nc3OC)CC2)c1", "note": "[RX-5902, 4-(3,5-dimethoxyphenyl)-N-(7-fluoro-3-methoxyquinoxalin-2-yl)piperazine-1-carboxamide]", "values": [{"measurement": "TGD", "setting": "[1]; 45-day study, maximum possible 52%, RX-5902 84.34 mg/kg po (5/2)x3, anti-PD-1 100 μg/animal ip biwk x2", "result": 51, "unit": "%"}, {"measurement": "median TTE", "setting": "[1]; 45-day study, RX-5902 84.34 mg/kg po (5/2)x3, anti-PD-1 100 μg/animal ip biwk x2", "result": 44.8, "unit": "days"}, {"measurement": "% TGI", "setting": "[1]; Day 28, RX-5902 84.34 mg/kg po (5/2)x3, anti-PD-1 100 μg/animal ip biwk x2", "result": 90, "unit": "%"}, {"measurement": "MTV on D45", "setting": "[1]; median tumor volume of survivors", "result": 14, "unit": "mm^3"}, {"measurement": "partial regressions (PR)", "setting": "[1]; n=10 per group", "result": "three"}, {"measurement": "survivors on D45", "setting": "[1]; n=10 per group", "result": "Five"}, {"measurement": "most frequently reported adverse events", "setting": "[2]; 25-775 mg", "result": "mild nausea, vomiting and fatigue"}, {"measurement": "tolerability", "setting": "[2]; at the tested dose levels (25-775 mg)", "result": "well tolerated"}, {"measurement": "loss of RX-5902", "setting": "[3]", "result": "little loss"}, {"measurement": "effect on RNA-dependent ATPase activity", "setting": "[4]; 0.2 μM", "result": "did not affect"}, {"measurement": "inhibition of RNA-dependent ATPase activity", "setting": "[4]; 20 μM", "result": "less than 30%"}]}
